The values that follow come from patent US3950346A, “Novel process for producing 2-ketoethylbenzomorphan derivatives and salts thereof” (Sumitomo Chemical Company, Limited, priority 1972, dated 1976).

The nature of data set [1]: Subcutaneous writhing test (antagonism of the syndrome produced by intraperitoneal 0.6% aqueous acetic acid). The format is in vivo. Conditions: mice, 20 minutes before acetic acid, Litchfield-Wilcoxon's method. How it is done: […]. Note: The test was based on the specific antagonism of the test compound to the typical syndrome produced by intraperitoneal injection of 0.6% aqueous acetic acid. The syndrome was characterized by intermittent contractions of the abdomen, twisting and turning of the trunk and extension of the hind legs. A group of 5 mice was used for each dose level. The test compound was administered subcutaneously 20 minutes before the injection of acetic acid. […] The ED50 value was calculated according to the Litchfield-Wilcoxon's method.
In general terms: Writhing tests count abdominal constrictions after an irritant is injected.

Data set [2] in a line: Physical dependency test: abstinence syndrome (body weight decrease on the day after drug withdrawal following 4 weeks of administration). The arrangement: key to Abstinence syndrome: +++: severe decrease (about 5% decrease); ++: moderate decrease; +: mild decrease; -: no decrease. The format is in vivo, rats (male, Wistar strain). The note with it: for Abstinence syndrome: 20 mg/kg/day, subcutaneously twice a day for 4 weeks, body weight decrease on next day after withdrawal, male Wistar rats; for addiction in long term animal tests / physical dependency: result in words; for physical dependency: orally or subcutaneously to rats everyday for 4 weeks. How it is done:
Known 6,7-benzomorphan derivatives such as 2'-hydroxy-2,5,9-trimethyl-6,7-benzomorphan [cf. […] On account of this addiction liability, these analgesics are severely restricted in a therapeutic use.
Note: Groups of male rats of Wistar strain (body weight, 150 g at the beginning of the test), each group consisting of 20 male rats, were subcutaneously given the test compound twice a day for 4 consecutive weeks. On the next day after drug withdrawal, the body weight was measured. The symbols have the following meanings: +++, severe decrease (about 5% decrease); ++, moderate decrease; +, mild decrease; -, no decrease.

For data set [3] the following is noted: known, cf. U.S. Pat. No. 3,138,603; result in words; cited from earlier work.
The conditions of data set [4]: known, cf. U.S. Pat. No. 3,138,603; result in words; cited from earlier work. This is another data set of the same source.
The mark [5] stands for this setting: Mus musculus, sc, read-out: ED50.

Where two headings read alike, the source gives them in different places.

The term ED50 denotes the dose that gives a 50% effect, or the effect in half of the subjects. In data set [1], “2'-Hydroxy-2-(β-ethylcarbonylethyl)-5,9-dimethyl-6,7-benzomorphan” showed an ED50 of 7.0 mg/kg. In data set [2], the Abstinence syndrome entry is “-”, the “addiction in long term animal tests” value is given as “do not show any addiction” and the physical dependency result is “did not produce any physical dependency”.

In the case of `CCOC(=O)CCN1CCC2(C)c3cc(O)ccc3CC1C2C` (stereo not drawn) [2'-Hydroxy-2-(β-ethoxycarbonylethyl)-5,9-dimethyl-6,7-benzomorphan], the ED50 in data set [1] (setting [5]) is 16.1 mg/kg. In data set [2], the Abstinence syndrome entry is on record as “-”, the “addiction in long term animal tests” value is reported as “do not show any addiction” and the physical dependency result was “did not produce any physical dependency”.

Consider `CC1C2Cc3ccc(O)cc3C1(C)CCN2C` (stereo not drawn) [2'-hydroxy-2,5,9-trimethyl-6,7-benzomorphan], for which the Abstinence syndrome result in data set [2] was “++”. Besides, in data set [3], the analgesic activity result was “potent analgesic activity”. In data set [4], the addiction liability entry is recorded as “show an addiction liability”.

Turning to `CC(C)=CCN1CCC2(C)c3cc(O)ccc3CC1C2C` (stereo not drawn) [Pentazocine, 2'-hydroxy-2-(3"-methyl-2"-butenyl)-5,9-dimethyl-6,7-benzomorphan, reference compound], the ED50 in data set [1] (setting [5]) was 17.5 mg/kg.
